Measured values reported in patent publication US8071119B2, “Controlled release implantable dispensing device and method” (Sustained Nano Systems LLC, priority 2007, dated 2011).
Read-outs that look alike come from different tables or passages of the source.

Legend:
[1] = longer term subconjunctival implantation of pellets in rabbit ocular tissues (HPLC tissue levels, histology); type: in vivo; conditions: other: subconjunctival implantation of a pellet, 13 weeks after implantation in right eye, 301,568 psi pellet
Experimental: A study was performed to assess the effects of longer term implantation of cylindrical pellets compressed at 301,568 psi, measuring 5 mm length×3 mm diameter, in rabbit ocular tissues. A new 3-mm diameter mold (prepared and adapted to fit/interchange with the supporting hardware of the 7.87 mm diameter mold) was utilized to prepare the smaller pellets required for the rabbit eye. Due to dimensional considerations and the need to reconcile with the pressure applied for preparing the pellets and the mechanical tolerance of the mold, the incremental pressurization approach, described above was utilized, an initial pressure of 1000 lb was applied; thereafter, ˜500 lb of additional pressure was applied approximately every 5 minutes until it reached about 300,000 psi range. The height of the pellets (cylinders) produced were about 5 mm. The pressure noted was 301,568 psi. Similar to the pig model as described above, the pellets were implanted beneath the conjunctiva in the superotemporal quadrant of the right eyes. At stipulated time-points, the rabbits were euthanized to harvest the ocular tissues. Accordingly, the implant sites were dissected out and the rest of the tissues were further separated into: sclera/conjunctiva, cornea and lens. FIG. 7 depicts the histology (cryosectioned, H&E stained) of an implant site 9 weeks post-op.
The dexamethasone levels in rabbit ocular tissue is determined after 13 weeks and is reported in nanograms of dexamethasone per mg of tissue in Table 1. The sclera/conjunctiva, cornea and lens are recovered, processed, and extracted. Dexamethasone levels are determined by HPLC assay. Table 1 reports the dexamethasone recovered from the rabbit ocular tissues after 13 weeks of implantation, which is the longest duration for this study series.

[2] = dexamethasone levels after subconjunctival implantation in pig eyes; type: in vivo; conditions: pigs, after subconjunctival implantation of the 211,685 psi disc
Experimental: A cylindrical shaped dosage form is made using dexamethasone and the polymer system was prepared as described above. The dosage form measures 7.87 mm in diameter, has a thickness of 1 mm, a weight of 60 mg and a drug loading of 6.5%. […] The dosage form is placed beneath the conjunctiva in the super temporal quadrant of the eyes of five pigs. […]

concentration at 13 weeks ([1]; left lens (eye without implant), read-out: dexamethasone level in Left Lens): 18300 ng/g | concentration at 13 weeks ([1]; left sclera/conjunctiva (eye without implant), read-out: dexamethasone level in Left Sclera/Conjunctiva): 20300 ng/g | concentration at 13 weeks ([1]; right cornea (implanted eye), read-out: dexamethasone level in Right Cornea): 40400 ng/g | concentration at 13 weeks ([1]; right lens (implanted eye), read-out: dexamethasone level in Right Lens): 78100 ng/g | concentration at 13 weeks ([1]; right sclera/conjunctiva (implanted eye), read-out: dexamethasone level in Right Sclera/Conjunctiva): 415000 ng/g | dexamethasone in plasma [2]: no detectable dexamethasone
Structure (SMILES): C[C@@H]1C[C@H]2[C@@H]3CCC4=CC(=O)C=C[C@]4(C)[C@@]3(F)[C@@H](O)C[C@]2(C)[C@@]1(O)C(=O)CO [dexamethasone]
